Consider seven molecules from ChEMBL document CHEMBL4342418, “1,2,3-Triazole-containing hybrids as potential anticancer agents: Current developments, action mechanisms and structure-activity relationships” (Eur J Med Chem, 2019).

Test [1] has as its system MCF7. The test can be described thus: Potency index, ratio of foretinib IC50 to test compound IC50 for antiproliferative activity against human MCF7 cells. It counts as functional.
For test [2], the system named is HepG2. Nature of the test: Potency index, ratio of foretinib IC50 to test compound IC50 for antiproliferative activity against human HepG2 cells. It counts as functional.
Test [3] deals with A549. Nature of the test: Antiproliferative activity against human A549 cells assessed as reduction in cell viability after 72 hrs by MTT assay. It counts as functional, cell-based. Conditions: A549, 72 h. (In general: Formazan colour is commonly taken as a measure of viable cells.)
The test system of test [4] is A549. Nature of the test: Potency index, ratio of foretinib IC50 to test compound IC50 for antiproliferative activity against human A549 cells. It counts as functional.
For test [5], the system named is HepG2. The test can be described thus: Antiproliferative activity against human HepG2 cells assessed as reduction in cell viability after 72 hrs by MTT assay. It counts as functional, cell-based. Conditions: HepG2, 72 h.
Test [6] concerns MCF7. Nature of the test: Antiproliferative activity against human MCF7 cells assessed as reduction in cell viability after 72 hrs by MTT assay. It counts as functional, cell-based. Conditions: MCF7, 72 h.
A further test concerns ASPC1. The test can be described thus: cells. It counts as functional, cell-based. As to conditions: Homo sapiens, ASPC1, 48 h.
Test [7] has as its system PC-3. Nature of the test: cells. As to conditions: Homo sapiens, PC-3, 48 h. It counts as functional, cell-based.
Description: Antiproliferative activity against human PC3 cells assessed as reduction in cell viability after 48 hrs by MTT assay
For the next test, the system named is NCI-H23. The test can be described thus: cells. It counts as functional, cell-based. As to conditions: Homo sapiens, NCI-H23, 48 h.
The test system of a further test is SW-620. The test can be described thus: cells. It counts as functional, cell-based. Conditions: Homo sapiens, SW-620, 48 h.
The nature of test [8]: Potency index, ratio of temozolomide IC50 to test compound IC50 for antiproliferative activity against human GBM2 cells. It counts as functional.
Test [9] is described as follows: Antiproliferative activity against human GBM95 cells assessed as reduction in cell viability after 72 hrs by MTT assay. It counts as functional, cell-based.
Test [10] in a line: Antiproliferative activity against human GBM2 cells assessed as reduction in cell viability after 72 hrs by MTT assay. It counts as functional, cell-based. Conditions: GBM2, 72 h.
Test [11] can be described thus: Potency index, ratio of temozolomide IC50 to test compound IC50 for antiproliferative activity against human GBM95 cells. It counts as functional.
Test [12] has as its system DU-145. The test can be described thus: Antiproliferative activity against human DU145 cells by MTT assay. It counts as functional, cell-based.
The test system of test [13] is HeLa. Nature of the test: Antiproliferative activity against human HeLa cells by MTT assay. It counts as functional, cell-based.
Test [14] deals with A549. Nature of the test: cells. It counts as functional, cell-based. As to conditions: Homo sapiens.
Description: Antiproliferative activity against human A549 cells by MTT assay
Test [15] deals with MCF7. The test can be described thus: cells. It counts as functional, cell-based. Conditions: Homo sapiens.
Description: Antiproliferative activity against human MCF7 cells by MTT assay
The next test has as its system B16. Nature of the test: Antiproliferative activity against mouse B16 cells by MTT assay. It counts as functional, cell-based.
Another test deals with SK-OV-3. Nature of the test: Antiproliferative activity against human SKOV3 cells by SRB assay. It counts as functional, cell-based. Background: Sulforhodamine B stains cellular protein and so reports cell mass.
For a further test, the system named is OVCAR-3. Nature of the test: Antiproliferative activity against human OVCAR3 cells by SRB assay. It counts as functional.
In the next test the test system is Caov-3 cell line. The test can be described thus: Antiproliferative activity against human Caov3 cells by SRB assay. It counts as functional.
For another test, the system named is SNB-19. The test can be described thus: Antiproliferative activity against human SNB19 cells assessed as reduction in cell viability after 48 hrs by MTT assay. As to conditions: SNB-19, 48 h. It counts as functional, cell-based.
A further test concerns T47D. The test can be described thus: Antiproliferative activity against human T47D cells assessed as reduction in cell viability after 48 hrs by MTT assay. It counts as functional, cell-based.
Test [16] concerns MCF7. Nature of the test: Antiproliferative activity against human MCF7 cells assessed as reduction in cell viability after 48 hrs by MTT assay. It counts as functional, cell-based. As to conditions: MCF7, 48 h.
For test [17], the system named is IMR-32. The test can be described thus: Antiproliferative activity against human IMR32 cells by SRB assay. It counts as functional.
The test system of another test is Caco-2. Nature of the test: Antiproliferative activity against human Caco2 cells assessed as reduction in cell viability after 48 hrs by MTT assay. It counts as functional, cell-based. Conditions: Caco-2, 48 h.
The next test concerns HT-29. The test can be described thus: Antiproliferative activity against human HT-29 cells assessed as reduction in cell viability after 72 hrs by MTT assay. It counts as functional, cell-based. Conditions: HT-29, 72 h.
In test [18] the test system is A549. Nature of the test: Growth inhibition in human A549 cells after 48 hrs by SRB assay. It counts as functional. Conditions: A549, 48 h.
The next test has as its system K562. Nature of the test: Antiproliferative activity against human K562 cells assessed as reduction in cell viability after 24 hrs by MTT assay. It counts as functional, cell-based. As to conditions: K562, 24 h.
Test [19] has as its system A549. Nature of the test: Antiproliferative activity against human A549 cells assessed as reduction in cell viability after 24 hrs by MTT assay. It counts as functional, cell-based. As to conditions: A549, 24 h.
The next test concerns PANC-1. The test can be described thus: Growth inhibition in human PANC1 cells after 48 hrs by SRB assay. It counts as functional. As to conditions: PANC-1, 48 h.
The subject of the next test is MOLT-4. The test can be described thus: Antiproliferative activity against human MOLT4 cells assessed as reduction in cell viability after 72 hrs by MTT assay. It counts as functional, cell-based. As to conditions: MOLT-4, 72 h.
The next test concerns U-87 MG. The test can be described thus: Antiproliferative activity against human U87 cells assessed as reduction in cell viability after 72 hrs by MTT assay. It counts as functional, cell-based, U-87MG ATCC.
A further test concerns COLO 205. The test can be described thus: Antiproliferative activity against human COLO205 cells assessed as reduction in cell viability after 24 hrs by MTT assay. It counts as functional, cell-based. Conditions: COLO 205, 24 h.
Test [20] relates to MDA-MB-231. Nature of the test: Antiproliferative activity against human MDA-MB-231 cells assessed as reduction in cell viability after 48 hrs by MTT assay. It counts as functional, cell-based. As to conditions: MDA-MB-231, 48 h.
The next test deals with A-431. Nature of the test: Antiproliferative activity against human A431 cells assessed as reduction in cell viability after 24 hrs by MTT assay. It counts as functional, cell-based. As to conditions: A-431, 24 h.
The test system of test [21] is PC-3. Nature of the test: Antiproliferative activity against human PC3 cells assessed as reduction in cell viability after 24 hrs by MTT assay. As to conditions: PC-3, 24 h. It counts as functional, cell-based.
Test [22] has as its system HeLa. The test can be described thus: Antiproliferative activity against human HeLa cells by SRB assay. It counts as functional, cell-based.
A short description of test [23]: Antiproliferative activity against human MiaPaCa cells by SRB assay. As to conditions: MIA PaCa-2. It counts as functional.
Test [24] deals with IMR-32. The test can be described thus: Growth inhibition in human IMR32 cells after 48 hrs by SRB assay. It counts as functional. As to conditions: IMR-32, 48 h.
Another test has as its system HCT-116. Nature of the test: Antiproliferative activity against human HCT116 cells assessed as reduction in cell viability after 48 hrs by MTT assay. It counts as functional, cell-based. As to conditions: HCT-116, 48 h.
For test [25], the system named is MDA-MB-231. Nature of the test: Antiproliferative activity against human MDA-MB-231 cells by SRB assay. It counts as functional.
The test system of test [26] is IMR-32. The test can be described thus: Antiproliferative activity against human IMR32 cells assessed as reduction in cell viability after 72 hrs by MTT assay. It counts as functional, cell-based. Conditions: IMR-32, 72 h.
Test [27] concerns MDA-MB-231. Nature of the test: Antiproliferative activity against human MDA-MB-231 cells assessed as reduction in cell viability after 24 hrs by MTT assay. It counts as functional, cell-based. As to conditions: MDA-MB-231, 24 h.
The subject of test [28] is HeLa. Nature of the test: Antiproliferative activity against human HeLa cells assessed as reduction in cell viability after 48 hrs by MTT assay. It counts as functional, cell-based.
The test system of test [29] is MDA-MB-231. Nature of the test: cells. As to conditions: Homo sapiens.
Description: Antiproliferative activity against human MDA-MB-231 cells assessed as reduction in cell viability preincubated for 24 hrs under hypoxia condition further incubated for 72 hrs under normaxic condition by MTT assay
Test [30] relates to DU-145. The test can be described thus: Growth inhibition in human DU145 cells after 48 hrs by SRB assay. It counts as functional. As to conditions: DU-145, 48 h.
The subject of another test is SiHa. Nature of the test: Growth inhibition in human SiHa cells after 48 hrs by SRB assay. It counts as functional.
The subject of test [31] is MDA-MB-231. The test can be described thus: Antiproliferative activity against human MDA-MB-231 cells assessed as reduction in cell viability after 72 hrs by MTT assay. It counts as functional, cell-based. Conditions: MDA-MB-231, 72 h.
The test system of test [32] is MDA-MB-231. Nature of the test: Growth inhibition in human MDA-MB-231 cells after 48 hrs by SRB assay. It counts as functional. As to conditions: MDA-MB-231, 48 h.

Description for ASPC1: Antiproliferative activity against human Aspc-1 cells assessed as reduction in cell viability after 48 hrs by MTT assay
Description for NCI-H23: Antiproliferative activity against human NCI-H23 cells assessed as reduction in cell viability after 48 hrs by MTT assay
Description for SW-620: Antiproliferative activity against human SW620 cells assessed as reduction in cell viability after 48 hrs by MTT assay

On to `O=C(Nc1ccc(Oc2ncnc3ccsc23)cc1)c1nnn(-c2ccc(Cl)cc2)c1C(F)(F)F`, for which the “Ratio IC50” value in the test on MCF7 [1], with HepG2 [2] and in the test with A549 [4] was 3.6 - 5.2 in each case. The IC50 in the test on A549 [3], with HepG2 [5] and in the test on MCF7 [6] was 500 to 1000 nM in each case.
For the molecule `Cc1ccc2c(c1)/C(=N\O)C(=O)N2Cc1cn(CCCC(=O)NO)nn1`, the IC50 in the test on ASPC1, with PC-3 [7], with NCI-H23 and in the test with SW-620 was 490 to 760 nM throughout.
Regarding `O=Cc1ccccc1-n1cc(COc2cccc(OCc3cn(-c4ccccc4C=O)nn3)c2)nn1`, the “Ratio IC50” value in test [8] is on record as 37.3; in test [11] it was 16.3. Besides, the IC50 came to 38200 nM in test [9] and 30300 nM in test [10].
Regarding `CCc1ccc(-c2cn(CCNC3=C(C)C(=O)c4ccccc4C3=O)nn2)cc1`, the IC50 in the test with DU-145 [12], with HeLa [13], with A549 [14], with MCF7 [15] and in the test on B16 was 8020 to 26100 nM in each case.
Consider `COc1cc(O)c2c(=O)cc(-c3ccc(OCc4cn(-c5ccccc5F)nn4)cc3)oc2c1`, for which the GI50 with SK-OV-3, in the test with OVCAR-3 and in the test with Caov-3 cell line was 10000 to 20000 nM each time.
On to `C=C(C)[C@@H]1CC[C@]2(OC(=O)c3cn(Cc4ccc(F)cc4)nn3)CC[C@]3(C)[C@H](CC[C@@H]4[C@@]5(C)CC[C@H](OC(=O)c6cn(Cc7ccc(F)cc7)nn6)C(C)(C)[C@@H]5CC[C@]43C)[C@@H]12`, for which the IC50 with SNB-19, in the test with T47D and with MCF7 [16] was 50 to 90 nM throughout.
Take `COc1cccc2c1C(=O)c1c(O)c3c(c(O)c1C2=O)C[C@@](O)(C(=O)CO)C[C@@H]3O[C@H]1C[C@H](N)[C@H](O)[C@H](C)O1` [DOXORUBICIN]: the GI50 is 23 to 97 nM in the test on IMR-32 [17]; less than 10 nM in the test with A549 [18]; less than 10 nM in the test with PANC-1; 23 to 97 nM in the test with HeLa [22]; 23 to 97 nM in [23]; less than 10 nM in the test with IMR-32 [24]. Also, the concentration for 50% growth inhibition (GI50) in the test with MDA-MB-231 [25] is 23 to 97 nM; in the test on DU-145 [30], less than 10 nM; in the test with SiHa, less than 10 nM; with MDA-MB-231 [32], less than 10 nM. The IC50 in the test on Caco-2 fell in the range of 1000 to 10000 nM; with HT-29 it was 15 to 335 nM; in the test on K562 it was 1430 to 12000 nM; with A549 [19], 1430 to 12000 nM; in the test with T47D, 1000 to 10000 nM; with MOLT-4 it was 15 to 335 nM. For the same molecule, the IC50 in the test with U-87 MG lay within 80 to 425 nM; in the test on COLO 205, 1430 to 12000 nM; with MDA-MB-231 [20] it was 550 to 4630 nM; in the test with A-431, 1430 to 12000 nM; in the test on PC-3 [21], 1430 to 12000 nM; in the test with HCT-116, 550 to 10000 nM. For the same molecule, the IC50 in the test with IMR-32 [26] is 80 to 425 nM; with A549 [14], 3300 nM; with MDA-MB-231 [27], 1430 to 12000 nM; in the test with HeLa [28], 550 to 4630 nM; in the test with MCF7 [6] it was 15 to 335 nM; with MDA-MB-231 [29], 600 nM. Besides, the values for the IC50 in the test with MDA-MB-231 [31] and in the test with MCF7 [16] were 80 to 425 nM and 1000 to 10000 nM, respectively.

In general, IC50 refers to the point on the concentration scale where inhibition reaches its midpoint. By GI50 is commonly meant the concentration at which growth is held to half of that of the control. Low values mean greater sensitivity of the cells, high ones lower sensitivity of the cells.
